Reference: ChEMBL document CHEMBL3045330, “Antimicrobial and anticancer effects of some 2-(substitutedsulfanyl)-N-(5-methyl-isoxazol-3-yl)acetamide derivatives” (Med Chem Res, 2013)
Values after ≈ are worked out from the molar mass of the structure shown.

How the values were obtained:
Candida albicans = assay: Antifungal activity against Candida albicans assessed as growth inhibition by CLSI broth microdilution method; assay type: functional
Pseudomonas aeruginosa = assay: Antibacterial activity against Pseudomonas aeruginosa ATCC 254992 assessed as growth inhibition by CLSI broth microdilution method; assay type: functional
C6 [1] = assay: Cytotoxicity against Rattus norvegicus (rat) C6 cells assessed as cell viability after 24 hr by MTT assay; assay type: functional, cell-based; conditions: C6, 24 h
HT-29 [2] = assay: Cytotoxicity against Homo sapiens (human) HT-29 cells assessed as cell viability after 24 hr by MTT assay; assay type: functional, cell-based; conditions: HT-29, 24 h
Escherichia coli = assay: Antibacterial activity against Escherichia coli ATCC 25922 assessed as growth inhibition by CLSI broth microdilution method; assay type: functional
Enterococcus faecalis = assay: Antibacterial activity against Enterococcus faecalis ATCC 29212 assessed as growth inhibition by CLSI broth microdilution method; assay type: functional
Staphylococcus aureus = assay: Antibacterial activity against Staphylococcus aureus NRRL B-767 assessed as growth inhibition by CLSI broth microdilution method; assay type: functional
HT-29 [3] = assay: Inhibition of nuclear DNA synthesis in Homo sapiens (human) HT-29 cells assessed as decrease in incorporation of bromo deoxyuridine during S phase of cell cycle at 3.2 uM after 48 hr by colorimetric method relative to untreated control; assay type: cell-based
C6 [4] = assay: Inhibition of nuclear DNA synthesis in Rattus norvegicus (rat) C6 cells assessed as decrease in incorporation of bromo deoxyuridine during S phase of cell cycle at 0.8 to 3.2 uM by colorimetric method; assay type: cell-based; conditions: TDE = time-dependent effect
HT-29 [5] = assay: Inhibition of nuclear DNA synthesis in Homo sapiens (human) HT-29 cells assessed as decrease in incorporation of bromo deoxyuridine during S phase of cell cycle at 0.8 to 3.2 uM by colorimetric method; assay type: cell-based; conditions: TDE = time-dependent effect
C6 [6] = assay: Inhibition of nuclear DNA synthesis in Rattus norvegicus (rat) C6 cells assessed as decrease in incorporation of bromo deoxyuridine during S phase of cell cycle after 24 to 48 hr by colorimetric method; assay type: cell-based
HT-29 [7] = assay: Inhibition of nuclear DNA synthesis in Homo sapiens (human) HT-29 cells assessed as decrease in incorporation of bromo deoxyuridine during S phase of cell cycle after 24 to 48 hr by colorimetric method; assay type: cell-based
C6 [8] = assay: Inhibition of nuclear DNA synthesis in Rattus norvegicus (rat) C6 cells assessed as decrease in incorporation of bromo deoxyuridine during S phase of cell cycle at 3.2 uM after 24 hr by colorimetric method relative to untreated control; assay type: cell-based
C6 [9] = assay: Inhibition of nuclear DNA synthesis in Rattus norvegicus (rat) C6 cells assessed as decrease in incorporation of bromo deoxyuridine during S phase of cell cycle at 3.2 uM after 48 hr by colorimetric method relative to untreated control; assay type: cell-based

Structure (SMILES)	MIC (Candida albicans) [µg/mL]	MIC (Pseudomonas aeruginosa) [µg/mL]	MIC (Escherichia coli) [µg/mL]	MIC (Enterococcus faecalis) [µg/mL]	MIC (Staphylococcus aureus) [µg/mL]	IC50 (C6 [1]) [nM]	IC50 (HT-29 [2]) [nM]	inhibition (HT-29 [3]) [%]	inhibition (C6 [4])	inhibition (HT-29 [5])	inhibition (C6 [6])	inhibition (HT-29 [7])	inhibition (C6 [8]) [%]	inhibition (C6 [9]) [%]
CC(=O)N1CCN(c2ccc(OCC3COC(Cn4ccnc4)(c4ccc(Cl)cc4Cl)O3)cc2)CC1 (stereo not given) [KETOCONAZOLE]	100 (≈ 188 µM)	–	–	–	–	–	–	–	–	–	–	–	–	–
Cc1cc(NC(=O)CSc2ccccc2)no1	200 (≈ 805 µM)	200 (≈ 805 µM)	400 (≈ 1610 µM)	400 (≈ 1610 µM)	200 (≈ 805 µM)	–	–	–	–	–	–	–	–	–
Cc1cc(NC(=O)CSc2nc3ccccc3[nH]2)no1	200 (≈ 694 µM)	200 (≈ 694 µM)	400 (≈ 1390 µM)	400 (≈ 1390 µM)	200 (≈ 694 µM)	100	90	80	tde	tde	Dose-dependent effect	Dose-dependent effect	> 50	70
Cc1cc(NC(=O)CSc2nnc(C)s2)no1	100 (≈ 370 µM)	200 (≈ 740 µM)	400 (≈ 1480 µM)	400 (≈ 1480 µM)	200 (≈ 740 µM)	580	670	–	–	–	–	–	–	–
O=C(N[C@H](CO)[C@H](O)c1ccc([N+](=O)[O-])cc1)C(Cl)Cl [CHLORAMPHENICOL]	–	50 (≈ 155 µM)	100 (≈ 309 µM)	100 (≈ 309 µM)	50 (≈ 155 µM)	–	–	–	–	–	–	–	–	–
Cc1cc(NC(=O)CSc2nc3ccccc3o2)no1	200 (≈ 691 µM)	200 (≈ 691 µM)	400 (≈ 1380 µM)	400 (≈ 1380 µM)	200 (≈ 691 µM)	440	220	80	tde	tde	Dose-dependent effect	Dose-dependent effect	> 50	70
Cc1cc(NC(=O)CSc2nc3ccccc3s2)no1	200 (≈ 655 µM)	200 (≈ 655 µM)	400 (≈ 1310 µM)	400 (≈ 1310 µM)	200 (≈ 655 µM)	210	400	–	tde	tde	Dose-dependent effect	Dose-dependent effect	–	–

More lines, in order of falling MIC (Candida albicans), values ahead:

MIC (Candida albicans) [µg/mL]	MIC (Pseudomonas aeruginosa) [µg/mL]	MIC (Escherichia coli) [µg/mL]	MIC (Enterococcus faecalis) [µg/mL]	MIC (Staphylococcus aureus) [µg/mL]	Structure (SMILES)	IC50 (C6 [1]) [nM]	IC50 (HT-29 [2]) [nM]	inhibition (HT-29 [3]) [%]	inhibition (C6 [4])	inhibition (HT-29 [5])	inhibition (C6 [6])	inhibition (HT-29 [7])	inhibition (C6 [8]) [%]	inhibition (C6 [9]) [%]
100 (≈ 418 µM)	100 (≈ 418 µM)	400 (≈ 1670 µM)	400 (≈ 1670 µM)	200 (≈ 836 µM)	Cc1cc(NC(=O)CSc2nc[nH]n2)no1	3190	1130	–	–	–	–	–	–	–
100 (≈ 396 µM)	200 (≈ 793 µM)	400 (≈ 1590 µM)	400 (≈ 1590 µM)	200 (≈ 793 µM)	Cc1cc(NC(=O)CSc2nccn2C)no1	1410	1130	–	–	–	–	–	–	–
100 (≈ 393 µM)	100 (≈ 393 µM)	400 (≈ 1570 µM)	400 (≈ 1570 µM)	200 (≈ 787 µM)	Cc1cc(NC(=O)CSc2nnnn2C)no1	1210	–	–	–	–	–	–	–	–
100 (≈ 395 µM)	100 (≈ 395 µM)	400 (≈ 1580 µM)	400 (≈ 1580 µM)	200 (≈ 790 µM)	Cc1cc(NC(=O)CSc2nncn2C)no1	1470	1020	–	–	–	–	–	–	–
100 (≈ 316 µM)	100 (≈ 316 µM)	400 (≈ 1260 µM)	400 (≈ 1260 µM)	200 (≈ 632 µM)	Cc1cc(NC(=O)CSc2nnnn2-c2ccccc2)no1	640	740	–	–	–	–	–	–	–
